Test [1] concerns the target T1, Sirt1 (Homo sapiens, UniProt Q96EB6).
T1 sequence (Q96EB6 1-747): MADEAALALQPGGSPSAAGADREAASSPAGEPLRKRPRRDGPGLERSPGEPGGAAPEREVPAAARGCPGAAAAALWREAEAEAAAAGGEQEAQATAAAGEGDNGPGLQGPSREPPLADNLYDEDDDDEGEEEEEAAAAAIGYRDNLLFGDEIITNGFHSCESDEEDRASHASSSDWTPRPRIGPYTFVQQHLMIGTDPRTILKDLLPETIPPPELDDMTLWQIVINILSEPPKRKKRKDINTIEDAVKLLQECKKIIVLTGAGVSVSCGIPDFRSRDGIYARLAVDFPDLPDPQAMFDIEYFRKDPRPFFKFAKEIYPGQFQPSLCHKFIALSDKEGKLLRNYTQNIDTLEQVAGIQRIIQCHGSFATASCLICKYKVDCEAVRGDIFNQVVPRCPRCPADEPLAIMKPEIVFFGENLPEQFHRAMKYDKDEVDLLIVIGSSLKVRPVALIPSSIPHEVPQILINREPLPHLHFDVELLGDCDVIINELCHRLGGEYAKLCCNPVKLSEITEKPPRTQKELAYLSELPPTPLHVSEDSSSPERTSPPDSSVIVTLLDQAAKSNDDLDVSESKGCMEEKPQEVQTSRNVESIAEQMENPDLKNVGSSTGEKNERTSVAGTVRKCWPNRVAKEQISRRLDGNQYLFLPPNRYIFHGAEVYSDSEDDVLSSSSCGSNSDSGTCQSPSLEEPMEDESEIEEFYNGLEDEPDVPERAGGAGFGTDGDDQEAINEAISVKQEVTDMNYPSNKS
In words: sirtuin inhibition IC50, Sirt1. As to conditions: Table 1; NI = no inhibition at 256 μM. Type of test: biochemical.

In test [2] the target is T2, Sirt2 (Homo sapiens, UniProt Q8IXJ6).
T2 sequence (Q8IXJ6 1-389): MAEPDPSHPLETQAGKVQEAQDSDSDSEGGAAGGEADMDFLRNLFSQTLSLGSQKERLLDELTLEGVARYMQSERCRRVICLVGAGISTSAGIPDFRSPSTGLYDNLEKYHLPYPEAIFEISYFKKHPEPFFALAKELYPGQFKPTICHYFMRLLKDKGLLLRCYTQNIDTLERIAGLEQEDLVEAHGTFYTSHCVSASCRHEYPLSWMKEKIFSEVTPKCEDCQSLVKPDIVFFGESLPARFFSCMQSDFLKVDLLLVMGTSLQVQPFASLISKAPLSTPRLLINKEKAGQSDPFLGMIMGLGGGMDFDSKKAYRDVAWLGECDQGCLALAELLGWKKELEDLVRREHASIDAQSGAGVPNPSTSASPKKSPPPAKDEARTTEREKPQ
Nature of the test: sirtuin inhibition IC50, Sirt2. Type of test: biochemical.

For test [3], the target named is T3, Sirt3 (Homo sapiens, UniProt Q9NTG7).
T3 sequence (Q9NTG7 1-399): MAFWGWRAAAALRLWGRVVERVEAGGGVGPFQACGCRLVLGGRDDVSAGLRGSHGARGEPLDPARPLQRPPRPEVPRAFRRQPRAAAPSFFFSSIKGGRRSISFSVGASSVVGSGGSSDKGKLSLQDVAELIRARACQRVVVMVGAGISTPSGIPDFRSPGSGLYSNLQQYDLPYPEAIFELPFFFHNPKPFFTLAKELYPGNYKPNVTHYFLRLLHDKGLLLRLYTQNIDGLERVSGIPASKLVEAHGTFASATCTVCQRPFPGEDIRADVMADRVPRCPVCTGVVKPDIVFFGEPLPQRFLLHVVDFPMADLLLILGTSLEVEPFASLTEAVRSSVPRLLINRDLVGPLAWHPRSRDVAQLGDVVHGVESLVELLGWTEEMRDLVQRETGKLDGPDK
Nature of the test: sirtuin inhibition IC50, Sirt3. The test is classed as biochemical. As to conditions: Table 1; NI = no inhibition at 256 μM.

For test [4], the target named is T4, Sirt5 (Homo sapiens, UniProt Q9NXA8).
T4 sequence (Q9NXA8 37-310): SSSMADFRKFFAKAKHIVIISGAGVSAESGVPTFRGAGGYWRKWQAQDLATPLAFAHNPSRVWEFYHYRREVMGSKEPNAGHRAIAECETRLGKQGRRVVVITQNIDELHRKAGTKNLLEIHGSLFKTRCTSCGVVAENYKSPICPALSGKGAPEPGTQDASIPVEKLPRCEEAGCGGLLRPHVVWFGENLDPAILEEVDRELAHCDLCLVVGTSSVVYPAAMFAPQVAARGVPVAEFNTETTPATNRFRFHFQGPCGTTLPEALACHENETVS
In words: sirtuin inhibition IC50, Sirt5-catalyzed desuccinylation. The test is classed as biochemical.

In test [5] the target is T4, Sirt5. In words: LC-MS analysis of reaction mixture with Sirt5 and NAD (mechanism-based inhibition). Type of test: biochemical. Particulars: LC / MS detection. How it is done:
To further confirm that the thiourea compound 5 is a mechanism-based inhibitor, the reaction mixture was analyzed by liquid chromatography-mass spectrometry (LC-MS). An ion with m/z of 1028.17 (corresponding to Compound 7a or protonated Compound 7b or 7c) was detected only when Compound 5 was incubated with both Sirt5 and NAD for 15 minutes, but not in negative controls without Sirt5 or NAD. In addition to Compound 7a or protonated Compound 7b or 7c, two new ions with m/z of 356.33 (corresponding to Compound 1) and 471.42 (corresponding to Compound 10) were also observed when Compound 5 was incubated with both Sirt5 and NAD, but not in negative controls without Sirt5 or NAD. Both Compounds 1 and 10 can be derived from the regular Sirt5-catalyzed deacylation reaction of Compound 7a (herein denoted as pathway A, as discussed in A. A. Sauve, et al., Annu. Rev. Biochem., 75, 435-465, 2006) or by an alternative hydrolysis pathway of 7a that is different from the regular sirtuin-catalyzed deacylation pathway (herein denoted as pathway B). […]
The foregoing results are likely responsible for Compound 3b being a less capable inhibitor of Sirt5 compared to Compound 5. […] The decomposition of the covalent intermediate occurs mainly through the Sirt5-catalyzed deacylation pathway A as the major product detected is Compound 1 with an m/z of 356.33.
The intermediate (7a/7b/7c) is readily detected by LC. […]

The subject of test [6] is MDA-MB-231. In words: foci formation, MDA-MB-231. Particulars: tested at 10, 25, 50, 100 μM. Type of test: cell-based, human. How it is done:
(§1) Each cancer cell line was assayed under the following six conditions: (1) untreated, (2) DMSO, (3) 15-2e at 10 μM, (4) 15-2e at 25 μM, (5) 15-2e at 50 μM, and (6) 15-2e at 100 μM.

Test [7] deals with MDA-MB-468. Nature of the test: foci formation, MDA-MB-468. Type of test: cell-based, human. Particulars: tested at 10, 25, 50, 100 μM. How it is done: as §1
Test [8] concerns MCF-7 cells. Nature of the test: foci formation, MCF-7. Type of test: cell-based, human. As to conditions: tested at 10, 25, 50, 100 μM. The procedure:
as §1

Test [9] deals with MCF-7. In words: inhibition of MCF-7 cancer cells, crystal violet staining after 10 days. As to conditions: 25, 50, 75, 100 μM. The test is classed as cell-based, human. The procedure: 15,000 cells were seeded in each well and treated with 25, 50, 75, and 100 μM YC6-18 and YC6-18e. Media with the inhibitor/DMSO was changed every three days. Cells were stained with crystal violet after growing for 10 days. The results are shown in FIG. 5A (for YC-6-18) and FIG. 5B (for YC-6-18e).

The test system of test [10] is HeLa cell lines. In words: protein succinylation Western blot in HeLa cells. Type of test: cell-based. As to conditions: 100 μM, 24 and 48 hours. How it is done: FIGS. 3A and 3B show the results of treatment of HeLa cell lines with 100 μM YC6-18e at time points of 24 and 48 hours, and FIG. 3C is the structure of YC6-18e. […] The results reveal that treatment with Compound YC6-18e can increase protein lysine succinylation. It was observed that the loading is lower for 48 hours but the succinylation intensity is slightly higher.
Background: A western blot detects proteins with antibodies after separation by electrophoresis.

The mark [11] stands for this setting: Table 1, NI = no inhibition at 256 μM.

The values that follow come from patent US10556878B2, “Thiourea compounds and their use as inhibitors of Sirt2 or Sirt5” (CORNELL UNIVERSITY, priority 2013, dated 2020).

One may read the IC50 as the concentration that inhibits the measured activity by half. One may read the inhibition as how much of the control response was suppressed. In the case of `O=C(O)CCC(=S)NCCCCC(NC(=O)OCc1ccccc1)C(=O)Nc1ccccc1` (stereo not shown) [Compound 3a, reference compound], the half-inhibitory concentration (IC50) is > 256 µM in [1], > 256 µM in test [2] (setting [11]), > 256 µM in test [3] and > 500 µM in [4] (setting [11]). The inhibition at 500 µM in [4] (at 500 μM) was determined as 20%.
As to `O=C(O)CCCC(=S)NCCCC[C@H](NC(=O)OCc1ccccc1)C(=O)Nc1ccccc1` [Compound 3b], the IC50 in test [1] is > 256 µM; in test [2] (setting [11]) it was > 256 µM; in test [3], > 256 µM; in test [4] (setting [11]) it was 43 µM. In addition, the “covalent intermediate with NAD in the presence of Sirt5” value in test [5] is given as “hardly detectable by LC”.
As to `CCCCCCCNC(=S)NCCCCC(NC(=O)OCc1ccccc1)C(=O)Nc1ccccc1` (stereo not shown) [Compound 6], the figures for the IC50 in test [1], in [2] (setting [11]) and in [4] (setting [11]) were 64 µM, 0.2 µM and > 256 µM, respectively.
For the compound `O=C(O)CCNC(=S)NCCCCC(NC(=O)OCc1ccccc1)C(=O)Nc1cccc(O)c1` (stereo not shown) [Compound I5-2], in [4] (Table 2, NI = no inhibition), half-maximal inhibition (IC50) was put at 0.89 µM.
As for `CCOC(=O)CCNC(=S)NCCCCC(NC(=O)OCc1ccccc1)C(=O)Nc1cccc(O)c1` (stereo not shown) [Compound I5-2e], the IC50 in test [2] (Table 2, NI = no inhibition) is 7.05 µM; in [4] (Table 2, NI = no inhibition) it was > 200 µM. Besides, the inhibition at 200 µM in test [4] (Table 2, at 200 μM (footnote 3), read-out: inhibition of SIRT5 (in brackets under IC50)) was determined as 30%. For the same compound, the “concentration from which foci formation is inhibited” value in test [6], in [7] and in test [8] was “about 25 μM” throughout.
`O=C(O)CCNC(=S)NCCCCC(NC(=O)OCc1ccccc1)C(=O)Nc1ccc(O)cc1` (stereo not shown) [YC6-04]: in [4] (Table 2, NI = no inhibition), the concentration for half-maximal inhibition (IC50) was found to be 3.28 µM.
As to `O=C(O)CCNC(=S)NCCCCC(NC(=O)OCc1ccccc1)C(=O)Nc1ccccc1O` (stereo not shown) [YC6-07], it took 1.91 µM to reach half-maximal inhibition in [4] (Table 2, NI = no inhibition) (IC50).
Regarding `CC(C)(C)OC(=O)NC(CCCCNC(=S)NCCC(=O)O)C(=O)Nc1cccc(O)c1` (stereo not shown) [YC6-09], in [4] (Table 2, NI = no inhibition), the IC50 is 4.37 µM.
`NS(=O)(=O)c1cc(C(=O)NC(CCCCNC(=S)NCCC(=O)O)C(=O)Nc2cccc(O)c2)ccc1Cl` (stereo not shown) [YC6-14] showed an IC50 in test [4] (Table 2, NI = no inhibition) of 3.05 µM.
Regarding `CC(=O)NC(CCCCNC(=S)NCCC(=O)O)C(=O)Nc1cccc(O)c1` (stereo not shown) [YC6-17], half-maximal inhibition in [4] (Table 2, NI = no inhibition) (IC50) was put at 13.6 µM.
For the compound `O=C(O)CCNC(=S)NCCCCC(NC(=O)OCc1ccccc1)C(=O)NC1CCSc2ccccc21` (stereo not shown) [YC6-18], the IC50 in test [4] (Table 2, NI = no inhibition) was found to be 0.45 µM. Besides, the “killing of MCF-7 cells” value in test [9] was “almost no effect”.
`CCOC(=O)CCNC(=S)NCCCCC(NC(=O)OCc1ccccc1)C(=O)NC1CCSc2ccccc21` (stereo not shown) [YC6-18e]: the IC50 in test [2] (Table 2, NI = no inhibition) is 3.92 µM; in test [4] (Table 2, NI = no inhibition), > 167 µM. Also, the “succinylation level on proteins” value in test [10] was “increased the succinylation level on proteins at 24 and 48 hours”. The “killing of MCF-7 cells” value in test [9] was “very effective in killing MCF-7 at 25 μM concentration”.
